Results published in patent publication US20100087466A1, “NOVEL SMALL MOLECULE DNAK INHIBITORS” (priority 2008, published 2010).
Structures can show the parent of a compound that is named as a salt. Where two headings read alike, the source gives them in different places. Non-standard residues stand in square brackets, D forms with d. Residues, ends and D or L forms follow the SMILES beside them. *: point of attachment. Phe(4-NH2) = Nc1ccc(C[C@H](N)C(=O)O)cc1; 2Nal = N[C@@H](Cc1ccc2ccccc2c1)C(=O)O; Hydrocinnamoyl = O=C(CCc1ccccc1)*; NH(CH2)3Ph = c1ccc(CCCN*)cc1; Octanoyl = CCCCCCCC(=O)*; Orn = NCCC[C@H](N)C(=O)O; Piperidide = C1CCN(*)CC1; Cbz = O=C(OCc1ccccc1)*; Boc = CC(C)(C)OC(=O)*; Bn = c1ccc(C*)cc1; NHBu = CCCCN*

Assays:
DnaK = DnaK (Escherichia coli, UniProt P0A6Y8); assay: DnaK Inhibition Assay (DnaK induced refolding of denatured firefly luciferase); format: biochemical, E. coli; settings: DnaK 200 nM, DnaJ 100 nM, GrpE 400 nM
DnaK, sequence (P0A6Y8 2-638): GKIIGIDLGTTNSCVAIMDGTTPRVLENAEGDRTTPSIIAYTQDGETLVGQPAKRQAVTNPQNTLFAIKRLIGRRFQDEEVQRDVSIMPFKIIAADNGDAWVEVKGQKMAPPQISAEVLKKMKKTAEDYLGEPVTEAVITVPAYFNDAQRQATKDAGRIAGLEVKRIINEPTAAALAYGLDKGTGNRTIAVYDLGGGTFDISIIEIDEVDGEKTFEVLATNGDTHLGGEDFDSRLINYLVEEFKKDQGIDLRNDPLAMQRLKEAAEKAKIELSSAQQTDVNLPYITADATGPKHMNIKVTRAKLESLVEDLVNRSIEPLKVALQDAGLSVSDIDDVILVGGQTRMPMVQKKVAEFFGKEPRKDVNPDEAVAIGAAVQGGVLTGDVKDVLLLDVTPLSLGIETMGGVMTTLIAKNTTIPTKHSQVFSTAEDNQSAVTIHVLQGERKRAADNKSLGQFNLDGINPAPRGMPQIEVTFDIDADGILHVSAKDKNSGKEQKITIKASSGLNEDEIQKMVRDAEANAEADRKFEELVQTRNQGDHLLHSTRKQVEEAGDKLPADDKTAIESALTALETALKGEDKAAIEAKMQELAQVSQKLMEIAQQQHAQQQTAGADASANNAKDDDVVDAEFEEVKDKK
Protocol: Inhibition of the bacterial DnaK chaperone system may be evaluated by inhibition of the DnaK induced refolding of denatured firefly luciferase. More specifically, firefly luciferase is denatured by treatment with 8N guanidium hydrochloride at room temperature for 30 mins and then 5° C. for 1 h. After dilution into cold MOPS buffer augmented with ATP (2.5 mM) and DTT (12.5 mM) and standing for a further hour, the denatured luciferase is refolded by addition to a mixture of chaperone proteins in MOPS buffer, resulting in a reaction mixture containing denatured luciferase (24 nM), DnaK (200 nM), DnaJ (100 nM) and GrpE (400 nM). The extent of refolding is determined by addition of a luciferase substrate and measurement of the emitted chemoluminescence. In this format the substrate is the commercially available luciferase “Steady-Glo” reagent from Promega, Inc. Inhibition of DnaK induced refolding is determined by premixing the chaperone proteins with the test agent at concentrations of test agent ranging from 1-100 μg/mL. The extent of refolding is compared to that with no test reagent, and the IC50 is estimated by fitting the data to a standard sigmoidal dose-response curve.
Inhibition of the bacterial DnaK chaperone system was evaluated by inhibition of the DnaK induced refolding of denatured firefly luciferase. Firefly luciferase was denatured by treatment with 8N guanidium hydrochloride at room temperature for 30 mins and then 5° C. for 1 h. After dilution into cold MOPS buffer augmented with ATP (2.5 mM) and DTT (12.5 mM) and standing for a further hour, the denatured luciferase was refolded by addition to a mixture of chaperone proteins in MOPS buffer, resulting in a reaction mixture containing denatured luciferase (24 nM), DnaK (200 nM), DnaJ (100 nM) and GrpE (400 nM). The extent of refolding was determined by addition of a luciferase substrate and measurement of the emitted chemoluminescence. In this format the substrate is the commercially available luciferase “Steady-Glo” reagent from Promega, Inc. Inhibition of DnaK induced refolding was determined by premixing the chaperone proteins with the test agent at concentrations of test agent ranging from 1-100 μg/mL. The extent of refolding was compared to that with no test reagent, and the IC50 was estimated by fitting the data to a standard sigmoidal dose-response curve.
IC50 is defined as the concentration in μM at which 50% inhibition of DnaK induced refolding of denatured firefly luciferase occurs.

E. coli (ATCC 25922) = assay: Antibacterial activity against E. coli (MIC); format: cell-based; settings: for MIC: Escherichia coli, ATCC25922
[1] = read-out: DnaK IC50(μg/ml) (converted)

Molecule	IC50 (DnaK; read-out: DnaK IC50) [µM]	IC50 (DnaK; [1]) [µM]	MIC (E. coli (ATCC 25922)) [µg/mL]	DnaK IC50(μg/ml) (DnaK) [µg/mL]	E. coli (ATCC 25922) MIC (E. coli (ATCC 25922); ATCC 25922) [µg/mL]
CCCCCCCC(=O)N[C@@H](Cc1ccc(O)cc1)C(=O)N[C@@H](CC(C)C)C(=O)N1CCC[C@H]1C(=O)N[C@H](CCCNC(=N)N)C(=O)N1CCCCC1 [Structure 27, Octanoyl-Tyr-Leu-Pro-Arg-N(CH2)5 trifluoroacetate] (Octanoyl-YLP[dR]-Piperidide)	8	9.45			
Ac-YLPRP-NH2 [Structure 1, Ac-Tyr-Leu-pro-Arg-Pro-NH2]	58	67.1			
CC(=O)N[C@@H](Cc1ccc(NC(=O)OCc2ccccc2)cc1)C(=O)N[C@@H](CC(C)C)C(=O)N1CCC[C@H]1C(=O)O [Structure 7, Ac-4-(NHCbz)Phe-Leu-Pro-OH] (Ac-[Phe(4-NH2)](Cbz)-Leu-Pro-OH)	72	224			
CC(=O)N[C@@H](Cc1ccc(O)cc1)C(=O)N[C@@H](CC(C)C)C(=O)N1CCC[C@H]1C(=O)N[C@@H](CCCNC(=N)N)C(=O)N1CCC[C@H]1C(=O)NCCCc1ccccc1 [Structure 16, Ac-Tyr-Leu-Pro-Arg-Pro-NH(CH2)3Ph.TFA] (Ac-YLPRP-{NH(CH2)3Ph})	24	32.3			
CC(=O)N[C@@H](Cc1ccc2ccccc2c1)C(=O)N[C@@H](CC(C)C)C(=O)N1CCC[C@H]1C(=O)O [Structure 9] (Ac-[2Nal]-Leu-Pro-OH)	62	282			
CC(C)C[C@H](NC(=O)[C@H](Cc1ccc(O)cc1)NC(=O)OC(C)(C)C)C(=O)N1CCC[C@H]1C(=O)N[C@@H](CCCNC(=N)N)C(=O)N1CCC[C@H]1C(=O)NCCCc1ccccc1 [Structure 12, Boc-Tyr-Leu-Pro-Arg-Pro-NH(CH2)3Ph] (Boc-YLPRP-{NH(CH2)3Ph})	11	12.8			
CC(=O)N[C@@H](Cc1ccc(OCc2ccccc2)cc1)C(=O)N[C@@H](CC(C)C)C(=O)N1CCC[C@H]1C(=O)N[C@@H](CCCN)C(=O)N1CCC[C@H]1C(=O)NCCCc1ccccc1 [Structure 20, Ac-Tyr(Bzl)-Leu-Pro-Orn-Pro-NH(CH2)3Ph] (Ac-Y(Bn)LP[Orn]P-{NH(CH2)3Ph})	16	20			
CCCCCCCC(=O)N[C@@H](Cc1ccc(OCc2ccccc2)cc1)C(=O)N[C@@H](CC(C)C)C(=O)N1CCC[C@H]1C(=O)N1CCCC(CNC(=N)N)C1 (stereo partly drawn) [Structure 33, Octanoyl-Tyr(Bzl)-Leu-Pro-(3-guanidinomethylpiperidine) trifluoroacetate]	23	26.8	16		
3-(Octylamido)-nicotinoyl-Tyr(Bzl)-Leu-Pro-Arg-OMe trifluoroacetate [Structure 31]	10			10	32
CCCCCCCC(=O)N[C@H](Cc1ccc(OCc2ccccc2)cc1)C(=O)N[C@@H](CC(C)C)C(=O)N1CCC[C@H]1C(=O)N[C@H](CCCNC(=N)N)C(=O)OC [Structure 25, Octanoyl-(D)-Tyr(Bzl)-Leu-Pro-Arg-OMe trifluoroacetate] (Octanoyl-[dY](Bn)LP[dR]-OMe)	20	23.1	128		
CC(=O)N[C@@H](Cc1ccc(OCc2ccccc2)cc1)C(=O)N[C@@H](CC(C)C)C(=O)N1CCC[C@H]1C(=O)N[C@@H](CCCNC(=O)OC(C)(C)C)C(=O)N1CCC[C@H]1C(=O)NCCCc1ccccc1 [Structure 17, Ac-Tyr(Bzl)-Leu-Pro-Orn(Boc)-Pro-NH(CH2)3Ph] (Ac-Y(Bn)LP[Orn](Boc)P-{NH(CH2)3Ph})	21	20			
CC(C)C[C@H](NC(=O)CCc1ccccc1)C(=O)N1CCC[C@H]1C(=O)N[C@@H](CCCNC(=N)N)C(=O)N1CCCCC1 [Structure 13, Ph(CH2)2C(O)-Leu-Pro-Arg-N(CH2)5] (Hydrocinnamoyl-Leu-Pro-Arg-Piperidide)	12	29.1			
CCCCNC(=O)[C@@H]1CCCN1C(=O)[C@H](CCCNC(=N)N)NC(=O)[C@@H]1CCCN1C(=O)[C@H](CC(C)C)NC(=O)[C@H](Cc1ccc(O)cc1)NC(C)=O [Structure 15, Ac-Tyr-Leu-Pro-Arg-Pro-NHBu.TFA] (Ac-YLPRP-NHBu)	24	39.1			
